Values of other authors in patent US6562869B1, “Nutritional supplement for increased energy and stamina” (Juvenon, Inc., priority 1999, dated 2003).
Read-outs that look alike come from different tables or passages of the source. Each block holds one compound with its values, some of them ahead of it.

Experiments:
[1] = system: aged rats
[2] = system: cardiac tissue
[3] = system: oxidant production; details: carnitine supplementation
[4] = system: carnitine-acyl-carnitine exchange across the inner mitochondrial membrane
[5] = system: human lymphocytes
[6] = system: heart functions
[7] = system: oxidative phosphorylation in skeletal muscles and brains; details: patients with mitochondrial cytopathies due to enzyme defects
[8] = system: male rats
[9] = system: male mice; details: life-long supplementation
[10] = system: striatal nerves; details: Q10 diet four weeks before and one week after MPTP
[11] = system: human plasma LDL phospholipids; details: healthy Finnish men and women aged 28-77, supplementation
[12] = daily up to 200 mg for 6 to 12 months and 100 mg daily for up to 6 years
[13] = system: apoptosis; details: through its action in the mitochondria
[14] = system: human atrial tissue
[15] = system: senescent myocardium; details: rats
[16] = parameters: dose or concentration left out as unconfirmed; details: woman deficient in Q10
[17] = men over 60, 5 days
[18] = older adults 67-80 years, 8 weeks
[19] = system: phosphocreatine (PCr)
[20] = system: skeletal muscle; details: older individuals aged 40-73, 20 g/day, one week

SMILES: O=C(O)CCCC[C@@H]1CCSS1 [R-α-lipoic acid]
- ambulatory activity of aged rats ([1]; aged rats): triple
- age-related decline in mitochondrial membrane potential ([1]; supplementation): restore
- age-related decrease in oxygen consumption ([1]; supplementation): reverse
- age-related increase in oxidants ([1]; supplementation): significantly lower
- glutathione and ascorbic acid levels ([1]; supplementation): to youthful levels

SMILES: COc1cccc2c1C(=O)c1c(O)c3c(c(O)c1C2=O)C[C@@](O)(C(=O)CO)C[C@@H]3O[C@H]1C[C@H](N)[C@H](O)[C@H](C)O1 [doxorubicin]
- mitochondrial oxidant production [2]: stimulates
- mtDNA deletions in cardiac tissue ([2]; cardiac tissue): marked increase

- cell antioxidants [3]: decreased cell antioxidants markedly
- oxidant production increase [3]: 30%
SMILES: C[N+](C)(C)CC(O)CC(=O)[O-] (centres unmarked) [carnitine]

SMILES: CC(=O)O[C@H](CC(=O)[O-])C[N+](C)(C)C [acetyl-L-carnitine]
- age-related dysfunction of carnitine-acyl-carnitine exchange [4]: slow or reverse

SMILES: C[N+](C)(C)C[C@H](O)CC(=O)[O-] [L-carnitine]
- age-related dysfunction of carnitine-acyl-carnitine exchange [4]: slow or reverse

SMILES: COc1c(O)c(C)c(C/C=C(\C)CC/C=C(\C)CC/C=C(\C)CC/C=C(\C)CC/C=C(\C)CC/C=C(\C)CC/C=C(\C)CC/C=C(\C)CC/C=C(\C)CCC=C(C)C)c(O)c1OC [ubiquinol-10]
- oxidative damage to DNA of human lymphocytes [5]: appears to protect

SMILES: COC1=C(OC)C(=O)C(C/C=C(\C)CC/C=C(\C)CC/C=C(\C)CC/C=C(\C)CC/C=C(\C)CC/C=C(\C)CC/C=C(\C)CC/C=C(\C)CC/C=C(\C)CCC=C(C)C)=C(C)C1=O [Example Q10, Coenzyme Q10]
- heart functions ([6]; old rats): improve heart functions
- heart functions ([6]; young rats): not significantly affect
- oxidative phosphorylation in skeletal muscles and brains [7]: marked improvement
- Q10 levels in kidney, heart and brain ([8]; Q10 supplementation): not affected
- lifespan ([8]; life-long supplementation, rats): did not prolong or shorten
- plasma and liver Q10 levels ([8]; supplemented rats): 2.6-8.4 times higher
- lifespan [9]: did not prolong or shorten
- dopamine, higher than control diet [10]: 37%
- more dense neurons than control diet [10]: 62%
- peroxyl radical trapping capacity [11]: doubled
- adverse effects [12]: No important adverse effects
- programmed cell death, or apoptosis [13]: appears to block
- tolerance of the senescent myocardium to aerobic and ischemic stress [14]: improves the tolerance
- tolerance of the senescent myocardium to aerobic and ischemic stress [15]: improves the tolerance
- clinical response [16]: rapidly improved
- effects of doxorubicin ([2]; cardiac tissue): blocks the effects of doxorubicin

SMILES: CN(CC(=O)O)C(=N)N [creatine]
- isokinetic performance and body mass [17]: only small increases
- isometric strength [17]: no effect
- 1- and 12-repetitions maxima, effect of creatine supplementation [18]: no beneficial effect
- time to exhaustion ([19]; both groups combined): increased
- resting PCr increase ([19]; middle-aged group (50-year-olds), P<0.05): 30%
- mean initial PCr resynthesis rate ([19]; middle-aged group, P<0.05): increased significantly
- resting PCr increase ([19]; young group (30-year-olds), P<0.05): 15%
- safety (about 1.5 g/day to about 25 g/day for at least a year): safe
- adverse effects (athletes, doses up to 75 grams a day for years, aside from weight gain): without known adverse effects
- skeletal muscle strength and endurance [20]: increased
